From US4645770A, “Agent for treating Parkinson's disease or Parkinsonism” (priority 1985, dated 1987)
Where a name gives a salt, the structure may show the parent alone.

Assays:
[1] = system: postsynaptic dopamine (DA) receptors; experiment: Ipsilateral rotation in the ibotenic acid model; assay type: in vivo, rat
[2] = system: "naive" rat; experiment: Spontaneous motor activity: non-ambulatory (stereotypical) movements, Opto-Varimex 3; assay type: in vivo; conditions: for Stereotypical movements (Movements/15 min.): from 55 minutes after injection
Experimental: (§1) (A) Spontaneous motor activity in the "naive" rat
(§2) Two aspects of motor function were recorded with a known "Opto-Varimex 3":
(b) "non-ambulatory" movements which are made up essentially of stereotypical movements, which began to be recorded 45 minutes after the animals had been put into the recording cage (and 55 minutes after s.c. injection).
(§3) The following doses of B-HT 920 were tested: 0.02, 0.2, 2.0 mg/kg s.c.. As a comparison apomorphine was tested in a dosage of 0.1 mg/kg s.c.

[3] = system: "naive" rat; experiment: Spontaneous motor activity: ambulatory movements (exploratory activity), Opto-Varimex 3; assay type: in vivo; conditions: for Contacts broken (exploratory activity/5 min.): first 5 minutes after injection
Experimental: as §1, §2
(a) "ambulatory" movements in the first 5 minutes after s.c. injection of B-HT 920; this phase of locomotor function corresponds to the so-called "exploratory activity" of rats in a new environment;
as §3

[4] = system: denervated post-synaptic DA receptors; experiment: Contralateral rotation on the 6-OHDA model; assay type: in vivo, rat
[5] = Oral acute toxicity (LD50) in the mouse; conditions: in vivo
[6] = system: MPTP Parkinsonism syndrome; experiment: MPTP model of Parkinson's disease in Rhesus monkeys; assay type: in vivo
Source text: The irreversible neurological syndrome triggered in monkeys and humans by MPTP largely resembles idiopathic Parkinson's disease in its clinical, pathological, biochemical and pharmacological features (Markey et al., Nature 311, 464 (1984)). The reason for this strong similarity is the fact that MPTP selectively destroys the small group of dopaminergic nerve cells in the substantia nigra of the brain which are also destroyed by degenerative processes in naturally occurring Parkinson's disease. There is even some discussion to the effect that idiopathic Parkinson's disease might be caused by MPTP or a similar chemical compound formed in the organism (Snyder, S. H., Nature 311, 514 (1984)). Possibly as a result of the specific metabolism of MPTP, the clinical features of the MPTP Parkinsonism syndrome have been thusfar only been detected in monkeys and man. The MPTP model produced in Rhesus monkeys is therefore exceptionally suitable for testing the effect of anti-Parkinson's drugs.
Voluntary movements of the hindquarters and extremities could not generally be initiated even by extreme and painful stimulation.
After the intramuscular administration of B-HT 920 (50-100 mcg/kg) the first voluntary movements occurred at a time interval of 5 to 10 minutes, followed in the next 10 to 30 minutes by a gradual, extensive normalization of motor function. The animals were capable of taking food. They maintained thier normal posture within their cages and also behaved normally in terms of vigilance and species-specific behavior. […] There was no sedation.

[7] = system: presynaptic dopaminergic receptors; conditions: Anden et al., 1983; cited from earlier work

Compound: CN1CCc2cccc3c2[C@H]1Cc1ccc(O)c(O)c1-3 [apomorphine, reference compound]
- Ipsilateral rotations/duration of activity ([1]; 0.5 mg/kg s.c., up to 3 hours): 265 Ipsilateral rotations/duration of activity
- Ipsilateral rotations/duration of activity ([1]; 1.0 mg/kg s.c., up to 3 hours): 436 Ipsilateral rotations/duration of activity
- Ipsilateral rotations/duration of activity ([1]; 10.0 mg/kg s.c., up to 3 hours): 880 Ipsilateral rotations/duration of activity
- Stereotypical movements (Movements/15 min.) ([2]; 4.0 mg/kg s.c.): 650 Movements/15 min.
- Contacts broken (exploratory activity/5 min.) ([3]; 0.1 mg/kg s.c.): 150 /5 min.
- Contralateral rotations up to 6 hours ([4]; 0.05 mg/kg): 557 Contralateral rotations

Compound: C=CCN1CCc2nc(N)sc2CC1 [Compound A, 2-amino-6-allyl-5,6,7,8-tetrahydro-4H-thiazolo[4,5-d]azepine]
- LD50 [5]: 455 mg/kg

Compound: C=CCN1CCc2nc(N)sc2CC1 [B-HT 920, 2-amino-6-allyl-5,6,7,8-tetrahydro-4H-thiazole-[4,5-d]azepine dihydrochloride]
- Ipsilateral rotations/duration of activity ([1]; 0.2 mg/kg s.c., up to 6 hours): 37 Ipsilateral rotations/duration of activity
- Ipsilateral rotations/duration of activity ([1]; 0.5 mg/kg s.c., up to 6 hours): 54 Ipsilateral rotations/duration of activity
- Ipsilateral rotations/duration of activity ([1]; 1.0 mg/kg s.c., up to 6 hours): 102 Ipsilateral rotations/duration of activity
- Ipsilateral rotations/duration of activity ([1]; 2.0 mg/kg s.c., up to 6 hours): 96 Ipsilateral rotations/duration of activity
- Activity on the normally sensitive DA receptor (in words) ([1]; compared with apomorphine): only a weak activity
- Post-synaptic DA-agonistic activity relative to apomorphine on the normally sensitive DA receptor ([1]; fraction of the activity of apomorphine): about one eighth
- Stereotypical movements (Movements/15 min.) ([2]; 0.2 mg/kg s.c.): 370 Movements/15 min.
- Stereotypical movements (Movements/15 min.) ([2]; 2.0 mg/kg s.c.): 310 Movements/15 min.
- Stereotypical movements (Movements/15 min.) ([2]; 4.0 mg/kg s.c.): 340 Movements/15 min.
- Increase in the number of stereotypical movements ([2]; any of the doses tested): did not lead to an increase in the number of stereotypical movements
- Contacts broken (exploratory activity/5 min.) ([3]; 0.02 mg/kg s.c.): 380 /5 min.
- Contacts broken (exploratory activity/5 min.) ([3]; 0.2 mg/kg s.c.): 150 /5 min.
- Inhibitory effect on the exploratory activity ([3]; 0.2 mg/kg, compared with 0.1 mg/kg of apomorphine): almost maximum
- Contacts broken (exploratory activity/5 min.) ([3]; 2.0 mg/kg s.c.): 130 /5 min.
- Behavior of the animals after administration ([6]; 50-100 mcg/kg intramuscular): The animals were capable of taking food. They maintained thier normal posture within their cages and also behaved normally in terms of vigilance and species-specific behavior
- Residual symptoms recorded ([6]; 50-100 mcg/kg intramuscular): an occasional, transient, slight resting tremor and a reduction in brute strength
- Sedation ([6]; 50-100 mcg/kg intramuscular): no sedation
- Time after which the effect diminished ([6]; 50-100 mcg/kg intramuscular): about 3 hours
- Blood supply to the skin ([6]; 50-100 mcg/kg intramuscular, compared with the state before administration): appeared to be increased
- Effect of fresh administration on clinical pathological symptoms ([6]; after reversion to the Parkinson's symptoms): improvement or substantial removal of the clinical pathological symptoms
- Side effects ([6]; at the dosages used): No side effects were discovered
- Contralateral rotations up to 6 hours ([4]; 0.02 mg/kg): 168 Contralateral rotations
- Contralateral rotations up to 6 hours ([4]; 0.05 mg/kg): 582 Contralateral rotations
- Contralateral rotations up to 6 hours ([4]; 0.5 mg/kg): 1282 Contralateral rotations
- Contralateral rotations up to 6 hours ([4]; 1.0 mg/kg): 1442 Contralateral rotations
- Activity on denervated receptors ([4]; by contrast with its weak effect on normal DA receptors): exceptionally strong activity on denervated receptors
- Agonist effect on presynaptic dopaminergic receptors [7]: agonist with a selective effect on presynaptic dopaminergic receptors
